# From patent publication US8343475B2, “Small cationic antimicrobial peptides” (priority 2006, dated 2013)
# Residues, ends and D or L forms follow the SMILES beside them. No end group written: not given here.
# Tests used:
# Assay type in all cases: cell-based
# [1] = test system: Pseudomonas aeruginosa PAO1 strain H103; details: for MIC: PAO1; for antimicrobial activity against P. aeruginosa PAO1 (in words): laboratory strain P. aeruginosa PAO1
# Description: The biological activity of the peptides can be determined by standard methods known to those of skill in the art, such as “minimal inhibitory concentration (MIC)” assay described in the present examples, whereby the lowest concentration at which no change in OD is observed for a given period of time is recorded as MIC.
# Minimal inhibitory concentration (MIC) determination. The MIC of the peptides were measured using a modified broth microdilution method in Mueller Hinton (MH) medium (Wu M, Hancock R E W. 1999. Interaction of the cyclic antimicrobial cationic peptide bactenecin with the outer and cytoplasmic membrane. J Biol Chem 274, 29-35). Briefly, the peptides were dissolved and stored in glass vials. The assay was performed in sterile 96-well polypropylene microtitre plates were used. Serial dilutions of the peptides to be assayed were performed in 0.01% acetic acid (Fisher) containing 0.2% bovine serum albumin (Boehringer Mannheim GmbH) at 10× the desired final concentration. Ten microlitres of the 10× peptides were added to each well of a 96-well polypropylene plate containing 90 μl of MH media per well. Bacteria were added to the plate from an overnight culture at 2-7×10^5 colony forming units/ml and incubated over night at 37° C. The MIC was taken as the concentration at which no growth was observed.
# (§1) Strains. For the killing assay a mini-Tn5-lux mutant in Pseudomonas aeruginosa H103 was used. The strain is called H1001 and contains a fliC::luxCDABE transcriptional fusion resulting in constitutive expression of luciferase. The bacterial strains used for the antimicrobial activity assays included Escherichia coli UB1005 (F-, nalA37, metB1), a wild-type Salmonella enterica ssp. typhimurium (S. typhimurium), wild-type Pseudomonas aeruginosa PAO1 strain H103, Enterococcus faecalis ATCC29212, Staphylococcus aureus ATCC25923, and a clinical isolate of Staphylococcus epidermidis obtained from Dr. D. Speert (Department of Medicine, University of British Columbia). Antifungal activity was tested using a lab isolate of Candida albicans obtained from Dr. B. Dill (Department of Microbiology and Immunology, University of British Columbia).
# [2] = test system: Pseudomonas aeruginosa strain H1001 fliC::luxCDABE; test: Luminescence (lux) killing assay, peptides cleaved from cellulose support; set-up: key: − for minimal or no activity; + for weak activity; +/++ for intermediate activity; ++ strong activity; details: P. aeruginosa strain H1001, 4 hours incubation, luminescence as indicator
# Description: Assay for the cleaved peptides from cellulose support. The peptides were cleaved from the dried membrane in an ammonia atmosphere overnight, resulting in free peptides with an amidated C-terminus. The free peptides contained two β-alanines at the C-terminus, in addition to being amidated due to the linker between the cellulose membrane and the peptide sequence. The peptide spots were punched out and transferred in a 96-well microtiter plate. Serial dilutions were carried out from the membrane spots. Four rows were filled with four controls including 2×Bac2A and 2× an unrelated peptide. The other eight rows were used for serial dilution steps of the peptide variants. An overnight culture of Pseudomonas aeruginosa strain H1001 was diluted 1:500 using either LB media or 100 mM Tris buffer pH 7.3, 20 mM glucose and was added to the wells (100 μl/well) containing the peptide spots. In all other wells 50 μl were added. The microtiter plate was incubated for 30 min at 37° C. to release the peptides from the membrane. Subsequently, a dilution series were performed and the plate was incubated at 37° C. The luminescence produced by the FMN dependent luciferase system were detected in a time dependent manner using a Tecan Spectra Fluor plus.
# as §1
# Peptide synthesis on cellulose is a very effective and inexpensive way to investigate many different peptide variants for one particular activity. However, one of the problems of this technique is the low peptide amount synthesized on the membrane, about 280 nmol per cm^2. An average peptide spot used for the experiments presented is about 0.3 cm^2. Therefore, an assay had to be developed that was sensitive enough to show activity with this amount of peptides. P. aeruginosa H1001 has a luciferase gene cassette incorporated into the bacterial chromosome in a gene fliC (involved in flagellar biosynthesis) that is constitutively expressed. It will thus produce light if FMN is present. When this strain is killed, e.g. by peptides, the amount of light produced will decrease due to a decrease in FMN levels in the killed cells. This action can thus be monitored by detecting luminescence in a microtiter plate luminescence reader over time. The volume and amount of cells per well were optimized for this assay. After screening, we were able to monitor the killing action with small amounts of the parent peptide Bac2A (2 μg/ml of free peptide).
# [3] = test system: MCP-1 release by human PBMC; test: Chemokine induction in PBMC (capture ELISA); details: background (204) subtracted
# Description: FIG. 15. Induction of MCP-1 release by 7.5×10^5 human PBMC in response to treatment with 20 or 100 μg/ml of different peptides for 24 hours.
# (§2) Venous blood (20 ml) from healthy volunteers was collected in Vacutainer® collection tubes containing sodium heparin as an anticoagulant (Becton Dickinson, Mississauga, ON) in accordance with UBC ethical approval and guidelines. Blood was diluted 1:1 with complete RPMI 1640 medium and separated by centrifugation over a Ficoll-Paque® Plus (Amersham Biosciences, Piscataway, N.J., USA) density gradient. White blood cells were isolated from the buffy coat, washed twice in RPMI 1640 complete medium, and the number of peripheral blood mononuclear cells (PBMC) was determined by trypan blue exclusion. PBMC (5×10^5) were seeded into 12-well tissue culture dishes (Falcon; Becton Dickinson) at 0.75 to 1×10^6 cells/ml at 37° C. in 5% CO2. The above conditions were chosen to mimic conditions for circulating blood monocytes entering tissues at the site of infection via extravasation.
# (§3) Following incubation of the cells under various treatment regimens, the tissue culture supernatants were centrifuged at 1000×g for 5 min, then at 10,000×g for 2 min to obtain cell-free samples. Supernatants were aliquoted and then stored at −20° C. prior to assay for various chemokines by capture ELISA (eBioscience and BioSource International Inc., CA, USA respectively)
# [4] = test system: MCP-3 release by human PBMC; test: Chemokine induction in PBMC (capture ELISA); details: background (6) subtracted
# Description: FIG. 16. Induction of MCP3 release by 7.5×10^5 human PBMC in response to treatment with 20 or 100 μg/ml of different peptides for 24 hours.
# as §2, §3
# [5] = test system: CXCL1 (Gro-α) release by human PBMC; test: Chemokine induction in PBMC (capture ELISA); details: background (196) subtracted
# Description: FIG. 17. Induction of CXCL1 (Gro-α) release by 7.5×10^5 human PBMC in response to treatment with 20 or 100 μg/ml of different peptides for 24 hours.
# as §2, §3
compound,measurement,setting,value
"CSCC[C@H](NC(=O)[C@H](CCCNC(=N)N)NC(=O)[C@H](Cc1c[nH]cn1)NC(=O)[C@H](CCCNC(=N)N)NC(=O)[C@H](CO)NC(=O)CNC(=O)[C@H](CCCNC(=N)N)NC(=O)[C@H](Cc1ccccc1)NC(=O)[C@H](C)N)C(N)=O [HHC152, AFRGSRHRM] (H-AFRGSRHRM-NH2; N-terminus assumed)",MIC,[1],506 µM
same,antimicrobial activity against P. aeruginosa PAO1 (in words),[1],did not posses any antimicrobial activity
"CSCC[C@H](NC(=O)CNC(=O)[C@H](Cc1c[nH]c2ccccc12)NC(=O)[C@H](CCCNC(=N)N)NC(=O)[C@H](CCCNC(=N)N)NC(=O)CN)C(=O)NCC(=O)N[C@H](C(=O)N[C@@H](CCCNC(=N)N)C(N)=O)C(C)C [HHC183, GRRWGMGVR] (H-GRRWGMGVR-NH2; N-terminus assumed)",MIC,[1],360 µM
same,antimicrobial activity against P. aeruginosa PAO1 (in words),[1],did not posses any antimicrobial activity
"CC(C)C[C@H](NC(=O)CNC(=O)[C@H](CCCCN)NC(=O)[C@H](CC(N)=O)NC(=O)[C@H](CCCNC(=N)N)NC(=O)[C@@H](N)CCC(N)=O)C(=O)N[C@@H](CCCNC(=N)N)C(=O)N[C@@H](Cc1c[nH]cn1)C(=O)N[C@@H](Cc1c[nH]cn1)C(N)=O [HHC186, QRNKGLRHH] (H-QRNKGLRHH-NH2; N-terminus assumed)",MIC,[1],381 µM
same,antimicrobial activity against P. aeruginosa PAO1 (in words),[1],did not posses any antimicrobial activity
"CC[C@H](C)[C@H](NC(=O)[C@H](CCC(N)=O)NC(=O)[C@H](CCCNC(=N)N)NC(=O)[C@H](CCCNC(=N)N)NC(=O)CNC(=O)[C@@H](N)CCCNC(=N)N)C(=O)NCC(=O)N[C@@H](CCCCN)C(=O)N[C@@H](Cc1ccccc1)C(N)=O [HHC189, RGRRQIGKF] (H-RGRRQIGKF-NH2; N-terminus assumed)",MIC,[1],379 µM
same,antimicrobial activity against P. aeruginosa PAO1 (in words),[1],did not posses any antimicrobial activity
"CC(C)[C@H](NC(=O)CNC(=O)[C@@H](NC(=O)[C@H](CCCNC(=N)N)NC(=O)[C@H](CCCCN)NC(=O)[C@H](CO)NC(=O)[C@H](C)N)C(C)C)C(=O)N[C@@H](CCCNC(=N)N)C(=O)N[C@@H](CC(N)=O)C(N)=O [HHC190, ASKRVGVRN] (H-ASKRVGVRN-NH2; N-terminus assumed)",MIC,[1],413 µM
same,antimicrobial activity against P. aeruginosa PAO1 (in words),[1],did not posses any antimicrobial activity
KFFKFKK [HH1009],Antimicrobial activity,[2],−
KFHWWIWRK [HH988],Antimicrobial activity,[2],++
KFHWWKWRK [HH989],Antimicrobial activity,[2],++
KFKFFKFRK [HH992],Antimicrobial activity,[2],+
KFKFFKYRK [HH991],Antimicrobial activity,[2],+
KFKWWKYRK [HH990],Antimicrobial activity,[2],++
KFPWWPWRR [HH976],Antimicrobial activity,[2],+
KFRWWKWRR [HH985],Antimicrobial activity,[2],++
KFRWWPWRR [HH984],Antimicrobial activity,[2],++
KKKWWKWRR [HH987],Antimicrobial activity,[2],++
KKPWWPWRR [HH977],Antimicrobial activity,[2],+
KWPKWPWRR [HH979],Antimicrobial activity,[2],+
KWPWKPWRR [HH980],Antimicrobial activity,[2],+
KWPWWKWRR [HH981],Antimicrobial activity,[2],++
KWPWWPKRR [HH982],Antimicrobial activity,[2],+
KWPWWPWRK [HH975],Antimicrobial activity,[2],+
KWPWWPWRR [HH983],Antimicrobial activity,[2],+/++
KWRWWKKRR [HH986],Antimicrobial activity,[2],++
KWRWWPWRR [HH978],Antimicrobial activity,[2],++
KWWKWKK [HH1008],Antimicrobial activity,[2],+
KWWPWRR [HH994],Antimicrobial activity,[2],+
LVRAIQVRAVIR (LVRAIQVRAVIR-NH2) [compound 1001],Chemokine induction MCP-1,[3]; 20 μg/ml peptide,516 pg/mL
same,Chemokine induction MCP-1,[3]; 100 μg/ml peptide,2491 pg/mL
same,Chemokine induction MCP-3,[4]; 20 μg/ml peptide,0 pg/mL
same,Chemokine induction MCP-3,[4]; 100 μg/ml peptide,40 pg/mL
same,Chemokine induction Gro-α,[5]; 20 μg/ml peptide,88 pg/mL
same,Chemokine induction Gro-α,[5]; 100 μg/ml peptide,850 pg/mL
PKWPWRR [HH997],Antimicrobial activity,[2],−
PWKPWRR [HH998],Antimicrobial activity,[2],−
PWWKWRR [HH995],Antimicrobial activity,[2],+/++
PWWKWRR [HH999],Antimicrobial activity,[2],+
PWWPKRR [HH1000],Antimicrobial activity,[2],−
PWWPWRK [HH1001],Antimicrobial activity,[2],−
PWWPWRR [HH993],Antimicrobial activity,[2],+
RFFKFRR [HH1007],Antimicrobial activity,[2],−
RFWKWRR [HH1004],Antimicrobial activity,[2],+
RWWIKRR [HH1005],Antimicrobial activity,[2],+/++
RWWIYRR [HH1006],Antimicrobial activity,[2],+
RWWKWRK [HH1003],Antimicrobial activity,[2],+/++
RWWKWRR [HH1002],Antimicrobial activity,[2],++
VIWIRWR (VIWIRWR-NH2) [compound 1041],Chemokine induction MCP-1,[3]; 20 μg/ml peptide,146 pg/mL
same,Chemokine induction MCP-1,[3]; 100 μg/ml peptide,1218 pg/mL
same,Chemokine induction MCP-3,[4]; 20 μg/ml peptide,7 pg/mL
same,Chemokine induction MCP-3,[4]; 100 μg/ml peptide,53 pg/mL
same,Chemokine induction Gro-α,[5]; 20 μg/ml peptide,110 pg/mL
same,Chemokine induction Gro-α,[5]; 100 μg/ml peptide,450 pg/mL
VQLRIWVRR (VQLRIWVRR-NH2) [compound 1006],Chemokine induction MCP-1,[3]; 20 μg/ml peptide,392 pg/mL
same,Chemokine induction MCP-1,[3]; 100 μg/ml peptide,3004 pg/mL
same,Chemokine induction MCP-3,[4]; 20 μg/ml peptide,0 pg/mL
same,Chemokine induction MCP-3,[4]; 100 μg/ml peptide,58 pg/mL
same,Chemokine induction Gro-α,[5]; 20 μg/ml peptide,65 pg/mL
same,Chemokine induction Gro-α,[5]; 100 μg/ml peptide,1245 pg/mL
WIVIWRR (WIVIWRR-NH2) [compound 1043],Chemokine induction MCP-1,[3]; 20 μg/ml peptide,98 pg/mL
same,Chemokine induction MCP-1,[3]; 100 μg/ml peptide,1998 pg/mL
same,Chemokine induction MCP-3,[4]; 20 μg/ml peptide,0 pg/mL
same,Chemokine induction MCP-3,[4]; 100 μg/ml peptide,21 pg/mL
same,Chemokine induction Gro-α,[5]; 20 μg/ml peptide,26 pg/mL
same,Chemokine induction Gro-α,[5]; 100 μg/ml peptide,881 pg/mL
WRWRVRVWR (WRWRVRVWR-NH2) [compound 1031],Chemokine induction MCP-1,[3]; 20 μg/ml peptide,875 pg/mL
same,Chemokine induction MCP-1,[3]; 100 μg/ml peptide,552 pg/mL
same,Chemokine induction MCP-3,[4]; 20 μg/ml peptide,9 pg/mL
same,Chemokine induction MCP-3,[4]; 100 μg/ml peptide,9 pg/mL
same,Chemokine induction Gro-α,[5]; 20 μg/ml peptide,172 pg/mL
same,Chemokine induction Gro-α,[5]; 100 μg/ml peptide,112 pg/mL
